Measurements: PMC8881610 (Nature Communications, 2022)
Where a chain is given by its changes, count along the chain named.

Experiments:
Assay in all cases: Whole-cell binding assay, competition with 125I-GIP1-42
Design in all cases: acylated tirzepatide to the full-length or modified; Flag; expressed in transfected cells
GIPR [1] = molecular target: T1, GIPR (Homo sapiens, UniProt P48546, R370A); details: GIPR R370A, CHO-K1
T1 sequence (P48546 22-466 R370A): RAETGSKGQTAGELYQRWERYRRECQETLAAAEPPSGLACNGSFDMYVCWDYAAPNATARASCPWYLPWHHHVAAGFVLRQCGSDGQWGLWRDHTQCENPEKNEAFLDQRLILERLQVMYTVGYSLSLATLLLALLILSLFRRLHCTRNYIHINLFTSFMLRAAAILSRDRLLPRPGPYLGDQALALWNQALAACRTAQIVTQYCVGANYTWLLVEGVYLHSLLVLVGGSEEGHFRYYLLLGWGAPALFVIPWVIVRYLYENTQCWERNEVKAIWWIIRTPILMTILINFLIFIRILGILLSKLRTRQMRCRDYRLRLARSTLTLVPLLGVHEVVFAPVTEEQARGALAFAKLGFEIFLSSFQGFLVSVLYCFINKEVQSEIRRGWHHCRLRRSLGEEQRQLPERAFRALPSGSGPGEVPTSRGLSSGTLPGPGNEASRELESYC
How it was run: (§1)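 Transiently transfected CHO-K1 cells expressing WT or mutant GIPR were washed in F-12 with 0.1% BSA or 0.1% casein and 33 mM HEPES, then incubated 2 h at 37 °C. After ice-cold PBS washes, cells were lysed and bound radioactivity counted (CPM).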

GIPR [2] = molecular target: T2, GIPR (Homo sapiens, UniProt P48546, Y36A); details: GIPR Y36A, CHO-K1; for IC50: read-out: binding pIC50 (converted)
T2 sequence (P48546 22-466 Y36A): T1 sequence (P48546 22-466 R370A) with Y15A, A349R
How it was run: as §1

GIPR [3] = molecular target: T3, GIPR (Homo sapiens, UniProt P48546, W90A); details: GIPR W90A, CHO-K1
T3 sequence (P48546 22-466 W90A): T1 sequence (P48546 22-466 R370A) with W69A, A349R
How it was run: as §1

GIPR [4] = molecular target: T4, GIPR (Homo sapiens, UniProt P48546, D191A); details: GIPR D191A, CHO-K1
T4 sequence (P48546 22-466 D191A): T1 sequence (P48546 22-466 R370A) with D170A, A349R
How it was run: as §1

[5] = read-out: binding pIC50 (converted)

CC[C@H](C)[C@H](NC(=O)[C@H](CC(C)C)NC(=O)[C@H](Cc1c[nH]c2ccccc12)NC(=O)[C@H](CCC(N)=O)NC(=O)[C@@H](NC(=O)[C@H](Cc1ccccc1)NC(=O)[C@H](C)NC(=O)[C@H](CCCCNC(=O)COCCOCCNC(=O)COCCOCCNC(=O)CC[C@H](NC(=O)CCCCCCCCCCCCCCCCCCC(=O)O)C(=O)O)NC(=O)[C@H](CCC(N)=O)NC(=O)[C@H](C)NC(=O)[C@@H](NC(=O)[C@H](CCCCN)NC(=O)[C@H](CC(=O)O)NC(=O)[C@H](CC(C)C)NC(=O)C(C)(C)NC(=O)[C@@H](NC(=O)[C@H](CO)NC(=O)[C@H](Cc1ccc(O)cc1)NC(=O)[C@H](CC(=O)O)NC(=O)[C@H](CO)NC(=O)[C@@H](NC(=O)[C@H](Cc1ccccc1)NC(=O)[C@@H](NC(=O)CNC(=O)[C@H](CCC(=O)O)NC(=O)C(C)(C)NC(=O)[C@@H](N)Cc1ccc(O)cc1)[C@@H](C)O)[C@@H](C)O)[C@@H](C)CC)[C@@H](C)CC)C(C)C)C(=O)N[C@@H](C)C(=O)NCC(=O)NCC(=O)N1CCC[C@H]1C(=O)N[C@@H](CO)C(=O)N[C@@H](CO)C(=O)NCC(=O)N[C@@H](C)C(=O)N1CCC[C@H]1C(=O)N1CCC[C@H]1C(=O)N1CCC[C@H]1C(=O)N[C@@H](CO)C(N)=O [Tirzepatide]
binding Span (GIPR [1]): 10.40 ± 2.67 % WT | binding pIC50 (GIPR [1]): N.B. | binding Span (GIPR [2]): 40.56 ± 12.64 % WT | IC50 (GIPR [2]): 275 nM | binding pIC50 (GIPR [3]): N.B. | binding pIC50 (GIPR [4]): N.B.

CCCCCCCCCCCCCCCC(=O)N[C@@H](CCC(=O)NCCCC[C@H](NC(=O)[C@H](CC(=O)O)NC(=O)[C@H](CO)NC(=O)[C@@H](NC(=O)[C@H](Cc1ccccc1)NC(=O)[C@@H](NC(=O)CNC(=O)[C@H](CCC(N)=O)NC(=O)C(C)(C)NC(=O)[C@@H](N)Cc1c[nH]cn1)[C@@H](C)O)[C@@H](C)O)C(=O)N[C@@H](CO)C(=O)N[C@@H](CCCCN)C(=O)N[C@@H](Cc1ccc(O)cc1)C(=O)N[C@@H](CC(C)C)C(=O)N[C@@H](CC(=O)O)C(=O)N[C@@H](CCC(=O)O)C(=O)N[C@@H](CCCNC(=N)N)C(=O)N[C@@H](C)C(=O)N[C@@H](C)C(=O)N[C@@H](CCC(N)=O)C(=O)N[C@@H](CC(=O)O)C(=O)N[C@@H](Cc1ccccc1)C(=O)N[C@H](C(=O)N[C@@H](CCC(N)=O)C(=O)N[C@@H](Cc1c[nH]c2ccccc12)C(=O)N[C@@H](CC(C)C)C(=O)N[C@@H](CC(C)C)C(=O)N[C@@H](CC(=O)O)C(=O)NCC(=O)NCC(=O)N1CCC[C@H]1C(=O)N[C@@H](CO)C(=O)N[C@@H](CO)C(=O)NCC(=O)N[C@@H](C)C(=O)N1CCC[C@H]1C(=O)N1CCC[C@H]1C(=O)N1CCC[C@H]1C(=O)N[C@@H](CO)C(N)=O)C(C)C)C(=O)O [Peptide 20]
binding Span (GIPR [1]): 22.84 ± 2.01 % WT | IC50 (GIPR [1]; [5]): 5.62 nM | binding Span (GIPR [2]): 48.19 ± 2.73 % WT | IC50 (GIPR [2]): 16.2 nM | binding Span (GIPR [3]): 3.87 ± 1.12 % WT | IC50 (GIPR [3]; [5]): 2.69 nM | binding Span (GIPR [4]): 12.29 ± 1.02 % WT | IC50 (GIPR [4]; [5]): 9.12 nM
